Results published in patent US9028856B2, “Synergistic pesticide compositions” (priority 2008, dated 2015).

Tests used:
[1] = tested on: Argentine ant, Linepithema humile; experiment: Knockdown/mortality of ant workers under continuous exposure on treated glazed tile; settings: for toxicity / efficacy of the substance alone (summary in words): Argentine ant, treated glazed tile; for Average % Knockdown & Mortality after 4 hr / Average % Knockdown & Mortality after 15 min: Table 8 (Ex. 5)
Method: (§1) Solutions of imidacloprid at 0.5% AI were prepared with and without methyl oleate @0.1, 1.0 and 5.0% in acetone. Treatments were applied using a micropipette to dispense 1 ml of test solution evenly on a 6″×6″ glazed tile. Actual coverage was about 5″×5″ (or 161 cm^2) for easy handling. Treatments were allowed to dry overnight. Ten Argentine ant workers were placed within a fluon or talc-coated PVC ring (φ7.6 cm×H 5.1 cm) under continuous exposure. A small vial filled with a cotton ball soaked in water was added as a drinking source after 3 hours. Treatments were replicated a minimum of three times. Evaluations for ant knockdown/mortality were made at various intervals and at 24 hours after exposure.
as §1, with “MATERIALS AND METHODS: Solutions” for “Solutions”, “linoleate” for “oleate”
as §1, with “MATERIALS AND METHODS: Solutions of” for “Solutions of”, “without methyl palmitate @0.1, 1.0” for “without methyl oleate @0.1, 1.0”, “after exposure. […]” for “after exposure.”

[2] = tested on: bait averse/resistant German cockroach (T-164 strain); experiment: Knockdown/mortality of male cockroaches under continuous exposure on treated glazed tile; assay type: in vivo, Blattella germanica; parameters: Average % Knockdown & Mortality after 5 hr / Average % Knockdown & Mortality after 30 min: concentration or dose not given beside the values; settings: for toxicity / efficacy of the substance alone (summary in words): German cockroach T-164, treated glazed tile
[3] = Table 7 (Ex. 4), glazed tile, continuous exposure, listed as Oleic acid (0.1%)
[4] = Table 7 (Ex. 4), glazed tile, continuous exposure, listed as Oleic acid (5%)
[5] = Table 16 (Ex. 13), glazed tile, continuous exposure, listed as Butylated hydroxytoluene (BHT) (1%)
[6] = Table 16 (Ex. 13), glazed tile, continuous exposure, listed as Butylated hydroxytoluene (BHT) (5%)
[7] = glazed tile, continuous exposure, listed as Methyl Oleate (1%)
[8] = glazed tile, continuous exposure, listed as Methyl Oleate (5%)

`CCCCCCCC/C=C\CCCCCCCC(=O)O` [Oleic acid] was tested, and the “toxicity / efficacy of the substance alone (summary in words)” value (“toxicity / efficacy” below) [1] was “at the high rates (1 & 5%) was toxic to the Argentine ants, but not at the low rate (0.1%)”, the “Average % Knockdown & Mortality after 3 hr” value [1, 3] was 0% and the “Average % Knockdown & Mortality after 7 hr” value [1, 3] was 0%. The “Average % Knockdown & Mortality after 3 hr” value ([1]; Table 7 (Ex. 4), glazed tile, continuous exposure, listed as Oleic acid (1%)) was 82%, the “Average % Knockdown & Mortality after 3 hr” value [1, 4] was 100% and the “Average % Knockdown & Mortality after 7 hr” value [1, 4] was 100%. For the same compound, the “toxicity / efficacy” value [2] was “toxic to German cockroaches at the high rate (5%), but not toxic at the two low rates” and the “Average % Knockdown & Mortality after 15 min” value ([2]; Table 6 (Ex. 3), glazed tile, continuous exposure) was 0%.

For `Cc1cc(C(C)(C)C)c(O)c(C(C)(C)C)c1` [BHT, butylated hydroxytoluene], the “toxicity / efficacy” value [1] was “toxic”, the “Average % Knockdown & Mortality after 18 hr” value ([1]; Table 16 (Ex. 13), glazed tile, continuous exposure, listed as Butylated hydroxytoluene (BHT) (0.1%)) was 7% and the “Average % Knockdown & Mortality after 2 hr” value [1, 5] was 3%. The “Average % Knockdown & Mortality after 18 hr” value [1, 5] was 3%, the “Average % Knockdown & Mortality after 2 hr” value [1, 6] was 7% and the “Average % Knockdown & Mortality after 18 hr” value [1, 6] was 79%. The “toxicity / efficacy” value [2] was “not toxic” and the “Average % Knockdown & Mortality after 5 hr” value ([2]; Table 17 (Ex. 14), glazed tile, continuous exposure) was 0%.

With `CCCCCCCC/C=C\CCCCCCCC(=O)OC` [Methyl oleate, methyl oleate] the “toxicity / efficacy” value [1] was “toxic”, the “Average % Knockdown & Mortality after 4 hr” value ([1]; glazed tile, continuous exposure, listed as Methyl Oleate (0.1%)) was 13% and the “Average % Knockdown & Mortality after 15 min” value [1, 7] was 0%. For the same compound, the “Average % Knockdown & Mortality after 4 hr” value [1, 7] was 55%, the “Average % Knockdown & Mortality after 15 min” value [1, 8] was 3% and the “Average % Knockdown & Mortality after 4 hr” value [1, 8] was 100%. The “toxicity / efficacy” value [2] was “at the higher rates (1 & 5%) showed delayed toxic effect”, the “Average % Knockdown & Mortality after 15 min” value ([2]; Table 9 (Ex. 6), glazed tile, continuous exposure, listed as Methyl Oleate (1%)) was 0% and the “Average % Knockdown & Mortality after 15 min” value ([2]; Table 9 (Ex. 6), glazed tile, continuous exposure, listed as Methyl Oleate (5%)) was 7%.

With `ClC(c1ccccc1)(c1ccccc1)c1ccccc1` [Tritylchloride (0.1%)] the “Average % Knockdown & Mortality after 2 hr” value ([1]; 2 hr, Table 22, imidacloprid/tritylchloride in acetone, glazed tile, continuous exposure) was 0%, the “Average % Knockdown & Mortality after 5 hr” value ([1]; 5 hr, Table 22, imidacloprid/tritylchloride in acetone, glazed tile, continuous exposure) was 0% and the “Average % Knockdown & Mortality after 3 hr” value ([2]; 3 hr, Table 23, imidacloprid/tritylchloride in acetone, glazed tile, T-164 strain) was 0%.

For `CCCCCCCCCCCCCCCC(=O)OC` [Methyl palmitate, methyl palmitate], the “toxicity / efficacy” value [1] was “not toxic”, the “Average % Knockdown & Mortality after 3 hr” value ([1]; Table 12 (Ex. 9), glazed tile, continuous exposure) was 0% and the “Average % Knockdown & Mortality after 7 hr” value ([1]; Table 12 (Ex. 9), glazed tile, continuous exposure, listed as Methyl Palmitate (1%)) was 0%. For the same compound, the “Average % Knockdown & Mortality after 7 hr” value ([1]; Table 12 (Ex. 9), glazed tile, continuous exposure, listed as Methyl Palmitate (5%)) was 7%, the “toxicity / efficacy” value [2] was “not toxic” and the “Average % Knockdown & Mortality after 4 hr” value ([2]; Table 13 (Ex. 10), glazed tile, continuous exposure) was 0%.

With `CCCCOC(=O)CCCCCCCCC(=O)OCCCC` [DBS, dibutyl sebacate] the “toxicity / efficacy” value [1] was “toxic to the Argentine ants, and the lower rates (0.1 & 1.0%) of DBS showed delayed toxicity” and the “toxicity / efficacy” value [2] was “not toxic to German cockroaches, except at its highest rate (5%)”.

For `ClC(c1ccccc1)(c1ccccc1)c1ccccc1` [Tritylchloride, triphenyl methyl chloride (tritylchloride)], the “toxicity / efficacy” value [1] was “not toxic” and the “toxicity / efficacy” value [2] was “not toxic”.
